By IC50 is commonly meant the concentration that gives 50% inhibition.

For one assay, the target named is T1, rat Mas receptor (Rattus norvegicus, UniProt P12526).
T1 construct: expressed in transfected cells; host or cells: HEK293 (ATCC CRL-1573)
T1 sequence (P12526 1-324): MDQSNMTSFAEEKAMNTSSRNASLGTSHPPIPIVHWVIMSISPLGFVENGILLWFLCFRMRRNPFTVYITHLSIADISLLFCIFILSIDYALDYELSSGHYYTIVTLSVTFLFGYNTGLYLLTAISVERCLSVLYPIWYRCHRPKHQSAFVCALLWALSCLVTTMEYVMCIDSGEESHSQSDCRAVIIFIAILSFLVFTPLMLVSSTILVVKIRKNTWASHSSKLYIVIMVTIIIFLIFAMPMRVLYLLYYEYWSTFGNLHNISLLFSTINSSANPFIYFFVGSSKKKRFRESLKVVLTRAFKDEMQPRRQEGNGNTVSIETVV
The assay is described as follows: HTRF IP1 assay, HEK293 cells expressing rat Mas receptor. Type of assay: cell-based. The settings on record: HTRF IP1 assay, rat Mas receptor (Table B.1); read-out: IC50. The text has this: (§1) Human and rat Mas receptors were either transiently or stably expressed in HEK293 cells. For transient transfections, human or rat Mas in pHM6 vector were transfected into HEK293 cells using Lipofectamine® (Invitrogen #18324-012). HEK293 cells transfected with empty pHM6 vector were used as a control. For generation of stable cell lines, cDNA expression plasmids encoding human or rat Mas genes and the neo^r gene were transfected into HEK293 cells (ATCC# CRL-1573) using Lipofectamine® (Invitrogen) according to the manufacturer's instructions. Stable receptor expressing pools were then generated over 3 weeks by standard techniques in the presence of 500 μg/mL Geneticin® (Gibco). Individual receptor stable pools were dilution cloned using standard techniques and clones were comparatively evaluated in inositol phosphate accumulation assays. Preferred clones were banked and cultured as needed. HEK293 cells were used as controls. The 384 well IP-One HTRF® Assay (Cisbio #62P1APEJ) was performed as described by the manufacturer's protocol. Cells were plated in at 100,000 cells per well in 15 μL DMEM (Gibco #11960) and incubated in a CO2 incubator at 37° C. for 2 h. Five μL of compounds diluted in 2× stimulation buffer plus 0.4% BSA (Sigma (#A3059) were added to each well and serial diluted IP1 standards (Cisbio #62IP1CDA) were also added to corresponding wells at this step. After the cells were incubated for 4 h in a CO2 incubator at 37° C., d2-labeled IP1 and cryptate-labeled anti-IP1 monoclonal antibody diluted in lysis buffer were added sequentially in 10 μL per well and the assay plates were kept in the dark at room temperature overnight. Ratiometric measurements of fluorescence emission at 665 nm and 620 nm were obtained using a Pherastar fluorometer (BMG Labtech). IP1 levels in each well were calculated according to the standard curves on each plate. IC50 values were obtained by fitting data to a nonlinear curve-fitting program (GraphPad Software, Inc., La Jolla Calif.).
A general note: Time-resolved FRET reads energy transfer from a long-lived donor to a nearby acceptor.
Turning to `O=C(Nc1ccc(Cl)cc1N1CCN(CCC(F)(F)F)CC1)c1ccc2c(c1)CN(CCCO)CC2` [Compound 16, N-(4-Chloro-2-(4-(3,3,3-trifluoropropyl)piperazin-1-yl)phenyl)-2-(3-hydroxypropyl)-1,2,3,4-tetrahydroisoquinoline-7-carboxamide], the IC50 was 316 nM.

`CCOC(=O)CN1Cc2ccc(C(=O)Nc3ccc(Cl)cc3N3CCN(CCC(F)(F)F)CC3)cc2C1` [Compound 27, Ethyl 2-(5-(4-chloro-2-(4-(3,3,3-trifluoropropyl)piperazin-1-yl)phenylcarbamoyl)isoindolin-2-yl)acetate]: the IC50 was 650 nM.

On to `O=C(Nc1ccc(Cl)cc1N1CCN(CCC(F)(F)F)CC1)c1ccc(N2CCCC2)cc1` [Compound 41, N-(4-Chloro-2-(4-(3,3,3-trifluoropropyl)piperazin-1-yl)phenyl)-4-(pyrrolidin-1-yl)benzamide], for which the IC50 was 582 nM.

The next assay has as its target T2, human Mas receptor (Homo sapiens, UniProt P04201).
T2 construct: expressed in transfected cells; host or cells: HEK293 (ATCC CRL-1573)
T2 sequence (P04201 1-325): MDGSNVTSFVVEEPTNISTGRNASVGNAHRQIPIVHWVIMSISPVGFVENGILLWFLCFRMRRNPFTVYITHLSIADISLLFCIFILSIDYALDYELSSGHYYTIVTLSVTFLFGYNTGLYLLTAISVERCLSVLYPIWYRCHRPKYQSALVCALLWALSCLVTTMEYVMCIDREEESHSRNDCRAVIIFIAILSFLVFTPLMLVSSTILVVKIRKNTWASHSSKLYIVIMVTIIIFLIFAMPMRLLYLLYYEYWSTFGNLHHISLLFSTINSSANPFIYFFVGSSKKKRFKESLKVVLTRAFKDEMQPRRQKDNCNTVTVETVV
The assay is described as follows: HTRF IP1 assay, HEK293 cells expressing human Mas receptor. Type of assay: cell-based. The settings on record: HTRF IP1 assay, human Mas receptor (Table B.2); read-out: IC50.
Source text: as §1
`O=C(Nc1ccc(Cl)cc1N1CCN(CCC(F)(F)F)CC1)c1ccc2c(c1)CNCC2` [Compound 13, N-(4-Chloro-2-(4-(3,3,3-trifluoropropyl)piperazin-1-yl)phenyl)-1,2,3,4-tetrahydroisoquinoline-7-carboxamide]: the concentration for half-maximal inhibition (IC50) was determined as 88.2 nM.

With `CC(C)(C)CCN1CCc2ccc(C(=O)Nc3ccc(Cl)cc3N3CCN(CCC(F)(F)F)CC3)cc2C1` [Compound 17, N-(4-Chloro-2-(4-(3,3,3-trifluoropropyl)piperazin-1-yl)phenyl)-2-(3,3-dimethylbutyl)-1,2,3,4-tetrahydroisoquinoline-7-carboxamide], the IC50 turned out to be 386 nM.

As for `NC(=O)CCN1CCc2ccc(C(=O)Nc3ccc(Cl)cc3N3CCN(CCC(F)(F)F)CC3)cc2C1` [Compound 20, 2-(3-Amino-3-oxopropyl)-N-(4-chloro-2-(4-(3,3,3-trifluoropropyl)piperazin-1-yl)phenyl)-1,2,3,4-tetrahydroisoquinoline-7-carboxamide], the IC50 was determined as 610 nM.

With `NCc1ccc(C(=O)Nc2ccc(Cl)cc2N2CCN(CCC(F)(F)F)CC2)c(F)c1` [Compound 26, 4-(Aminomethyl)-N-(4-chloro-2-(4-(3,3,3-trifluoropropyl)piperazin-1-yl)phenyl)-2-fluorobenzamide], the concentration for half-maximal inhibition (IC50) came out at 87.3 nM.

For the molecule `NC(=O)[C@@H]1CCCN1Cc1ccc(C(=O)Nc2ccc(Cl)cc2N2CCN(CCC(F)(F)F)CC2)c(F)c1` [Compound 56, (S)-1-(4-(4-Chloro-2-(4-(3,3,3-trifluoropropyl)piperazin-1-yl)phenylcarbamoyl)-3-fluorobenzyl)pyrrolidine-2-carboxamide], the IC50 was 56.1 nM.

As for `NC(=O)[C@H](CO)NCc1ccc(C(=O)Nc2ccc(Cl)cc2N2CCN(CCC(F)(F)F)CC2)c(F)c1` [Compound 76, (S)-4-((1-Amino-3-hydroxy-1-oxopropan-2-ylamino)methyl)-N-(4-chloro-2-(4-(3,3,3-trifluoropropyl)piperazin-1-yl)phenyl)-2-fluorobenzamide], the IC50 was 68.2 nM.

For the molecule `O=C1CN(Cc2ccc(C(=O)Nc3ccc(Cl)cc3N3CCN(CCC(F)(F)F)CC3)c(F)c2F)CCN1` [Compound 167, N-(4-Chloro-2-(4-(3,3,3-trifluoropropyl)piperazin-1-yl)phenyl)-2,3-difluoro-4-((3-oxopiperazin-1-yl)methyl)benzamide], the IC50 came out at 35.3 nM.

For `O=C(Nc1cc(Cl)c(Cl)cc1N1CCN(CCC(F)(F)F)CC1)c1ccc(CN2CCS(=O)(=O)CC2)c(F)c1F` [Compound 186, N-(4,5-Dichloro-2-(4-(3,3,3-trifluoropropyl)piperazin-1-yl)phenyl)-2,3-difluoro-4-((1,1-dioxo-thiomorpholin-4-yl)methyl)benzamide], the IC50 amounted to 49.1 nM.

For the molecule `O=C(Nc1ccc(Cl)cc1N1CCN(CCC(F)(F)F)CC1)c1ccc(CNCc2nn[nH]n2)c(F)c1F` [Compound 200, 4-(((2H-Tetrazol-5-yl)methylamino)methyl)-N-(4-chloro-2-(4-(3,3,3-trifluoropropyl)piperazin-1-yl)phenyl)-2,3-difluorobenzamide], the IC50 turned out to be 41.7 nM.

For the molecule `O=C(O)CNCc1ccc(C(=O)Nc2ccc(Cl)cc2N2CCN(CCC(F)(F)F)CC2)c(F)c1F` [Compound 202, 2-(4-(4-Chloro-2-(4-(3,3,3-trifluoropropyl)piperazin-1-yl)phenylcarbamoyl)-2,3-difluorobenzylamino)acetic acid], the IC50 was 92.1 nM.

On to `O=C(O)CC1CNCCN1Cc1ccc(C(=O)Nc2ccc(Cl)cc2N2CCN(CCC(F)(F)F)CC2)c(F)c1F` (stereo not shown) [Compound 226, 2-(1-(4-(4-Chloro-2-(4-(3,3,3-trifluoropropyl)piperazin-1-yl)phenylcarbamoyl)-2,3-difluorobenzyl)piperazin-2-yl)acetic acid], for which the IC50 was 93.9 nM.

For `N#CCCNCc1ccc(C(=O)Nc2ccc(Cl)cc2N2CCN(CCC(F)(F)F)CC2)c(F)c1F` [Compound 235, N-(4-Chloro-2-(4-(3,3,3-trifluoropropyl)piperazin-1-yl)phenyl)-4-((2-cyanoethylamino)methyl)-2,3-difluorobenzamide], the IC50 amounted to 39.1 nM.

On to `NC(=O)[C@@H](COP(=O)(O)O)NCc1ccc(C(=O)Nc2ccc(Cl)cc2N2CCN(CCC(F)(F)F)CC2)c(F)c1F` [Compound 250, (R)-3-Amino-2-(4-(4-chloro-2-(4-(3,3,3-trifluoropropyl)piperazin-1-yl)phenylcarbamoyl)-2,3-difluorobenzylamino)-3-oxopropyl dihydrogenphosphate], for which the IC50 was 5.7 nM.

Regarding `O=C(Nc1ccc(Cl)cc1N1CCN(CCC(F)(F)F)CC1)c1ccc2c(c1)CN(C(=O)c1cccnc1)CC2` [Compound 259, N-(4-Chloro-2-(4-(3,3,3-trifluoropropyl)piperazin-1-yl)phenyl)-2-nicotinoyl-1,2,3,4-tetrahydroisoquinoline-7-carboxamide], the IC50 is 108 nM.

Turning to `NC1(C(=O)NCc2ccc(C(=O)Nc3ccc(Cl)cc3N3CCN(CCC(F)(F)F)CC3)c(F)c2F)CCSCC1` [Compound 284, 4-Amino-N-(4-(4-chloro-2-(4-(3,3,3-trifluoropropyl)piperazin-1-yl)phenylcarbamoyl)-2,3-difluorobenzyl)tetrahydro-2H-thiopyran-4-carboxamide], the IC50 came out at 57.2 nM.

`O=C(O)CCC(=O)NCc1ccc(C(=O)Nc2ccc(Cl)cc2N2CCN(CCC(F)(F)F)CC2)c(F)c1F` [Compound 293, 4-(4-(4-Chloro-2-(4-(3,3,3-trifluoropropyl)piperazin-1-yl)phenylcarbamoyl)-2,3-difluorobenzylamino)-4-oxobutanoic acid]: the IC50 is 103 nM.

On to `O=C(Nc1ccc(Cl)cc1N1CCN(CCC(F)(F)F)CC1)c1ccc(CNC(=O)[C@H]2CC[C@@H](O)CC2)c(F)c1F` [Compound 330, N-(4-Chloro-2-(4-(3,3,3-trifluoropropyl)piperazin-1-yl)phenyl)-2,3-difluoro-4-(((1s,4s)-4-hydroxycyclohexanecarboxamido)methyl)benzamide], for which the IC50 turned out to be 11.7 nM.

On to `O=C(Nc1ccc(Cl)cc1N1CCN(CCC(F)(F)F)CC1)c1ccc(CNC(=O)[C@H]2CC[C@@H](OP(=O)(O)O)CC2)c(F)c1F` [Compound 392, (1s,4s)-4-(4-(4-Chloro-2-(4-(3,3,3-trifluoropropyl)piperazin-1-yl)phenylcarbamoyl)-2,3-difluorobenzylcarbamoyl)cyclohexyl dihydrogen phosphate], for which the half-inhibitory concentration (IC50) amounted to 6.13 nM.

In the case of `O=C(Nc1ccc(Cl)cc1N1CCN(CCC(F)(F)F)CC1)c1ccc(CN2C(=O)CNC2=O)c(F)c1F` [Compound 428, N-(4-Chloro-2-(4-(3,3,3-trifluoropropyl)piperazin-1-yl)phenyl)-4-((2,5-dioxoimidazolidin-1-yl)methyl)-2,3-difluorobenzamide], the IC50 was found to be 73.3 nM.
